Measurements taken from patent US20250026742A1 (SUZHOU ARK BIOPHARMACEUTICAL CO., LTD., priority 2021, published 2025).
Where a name gives a salt, the structure may show the parent alone.

Tests used:
ATR kinase = ATR kinase (Homo sapiens (Human), UniProt Q13535); test: ATR enzyme activity inhibition assay (HTRF); format: biochemical; settings: p53 substrate, full-length ATR enzyme
Procedure: The inhibitory ability to ATR kinase for selected compounds was tested by the HTRF (Homogeneous Time-Resolved Fluorescence). In the reaction system, After the substrate p53 is phosphorylated by ATR, the anti-phospho-p53-Eu that serves as an energy donor and specifically binds to the phosphorylation site on p53 is added. Then, the anti-GST-d2 as an energy acceptor that specifically binds to the GST tag carried on p53 is added. […] The IC50 of the sample to be tested can be obtained through graphing and calculation.
Prepare various buffer systems required for the experiment: • 1. […] Prepare detection buffer: Dilute each of the anti-phospho-p53-Eu cryptate (Cisbio, Cat #61P08KA) and anti-GST-d2 (Cisbio, Cat #61GSTDLB) to 1 unit using HTRF detection buffer (Cisbio, Cat #62SDBRDF).
Powdered compounds were dissolved in DMSO to from a stock solution at a concentration of 10 mM. The solution of compounds to be tested at a concentration of […] was performed a 3-fold dilution for 10 concentrations with DMSO. […] 5 μL of ATR was added to each well accordingly. Each well is incubated at 25° C. for 10 min, added with 5 μL of reaction substrate, incubated at 25° C. for 90 min and added with 10 μL of detection solution. […] The inhibition curves of the compounds were made by the four-parameter […] regression equation of XLfit software, and the inhibition rates of the compounds were calculated.

[1] = system: human lung cancer NCI-H23 cells; test: In vivo pharmacodynamics in the NCI-H23 subcutaneous graft tumor model; set-up: species or system CB.17/SCID mouse; settings: for TGI (%) / Tumor change (%): 14 days after administration; for TGI (%) / Tumor change (%) / Tumor volume (mm^3) day 0 / Tumor volume (mm^3) day 14: 12.5 mg/kg PO QD + Cisplatin 1.5 mg/kg IP QW, NCI-H23 xenograft, CB.17/SCID mice; for body weight of mice after drug administration / decrease in tumor volume compared to the Cisplatin+VX-970 group: combination with Cisplatin; for body weight of mice after drug administration: no difference in body weight loss between the groups (FIG. 1); for Tumor volume (mm^3) day 0: day 0 (start of administration); for Tumor volume (mm^3) day 14: 2 weeks; for decrease in tumor volume compared to the Cisplatin+VX-970 group: p<0.05 in T-test (FIGS. 2 and 3)
Procedure: • 1, cell culture: human lung cancer NCI-H23 cells (ATCC, Item No.: CRL-5800) are performed with an in vitro monolayer culture. […] Trypsin-EDTA was used for conventional digestion and treatment of passaging twice a week. When the cell saturation is […] and the number meets the requirement, the cells are collected, counted and inoculated. • 2, Animals: CB.17/SCID mouse, female, 6-8 weeks old, weighing 18-22 grams. A total of 84 mice are needed, which are provided by Beijing Viton Lihua Laboratory Animal Technology Co., Ltd. or equivalent qualified suppliers. • 3.
• 4. Tumor inoculation: 0.2 mL (10×10^6 cells) of NCI-H23 cells (plus stromal gel, volume ratio 1:1) were subcutaneously inoculated into the right back of each mouse. Mice are grouped for drug administration when the average tumor volume reached about 200 mm^3. Animals were weighed before dosing and tumor volumes were measured. Groups were randomized according to tumor volume (randomized area group design).
• 1 ? The experimental index is to examine whether the tumor growth is inhibited, delayed or cured. […] Calculation of Tumor change (%): Tumor change (%)=(average tumor volume at the end of administration of a treatment group−average tumor volume at the beginning of administration of a treatment group)/average tumor volume at the beginning of administration of a treatment group×100%. Tumor change (%): less than 0, non-growth of the tumor in the mice after the drug administration, and the existence of inhibition. • 6.

Chain of ATR kinase (Q13535 whole entry): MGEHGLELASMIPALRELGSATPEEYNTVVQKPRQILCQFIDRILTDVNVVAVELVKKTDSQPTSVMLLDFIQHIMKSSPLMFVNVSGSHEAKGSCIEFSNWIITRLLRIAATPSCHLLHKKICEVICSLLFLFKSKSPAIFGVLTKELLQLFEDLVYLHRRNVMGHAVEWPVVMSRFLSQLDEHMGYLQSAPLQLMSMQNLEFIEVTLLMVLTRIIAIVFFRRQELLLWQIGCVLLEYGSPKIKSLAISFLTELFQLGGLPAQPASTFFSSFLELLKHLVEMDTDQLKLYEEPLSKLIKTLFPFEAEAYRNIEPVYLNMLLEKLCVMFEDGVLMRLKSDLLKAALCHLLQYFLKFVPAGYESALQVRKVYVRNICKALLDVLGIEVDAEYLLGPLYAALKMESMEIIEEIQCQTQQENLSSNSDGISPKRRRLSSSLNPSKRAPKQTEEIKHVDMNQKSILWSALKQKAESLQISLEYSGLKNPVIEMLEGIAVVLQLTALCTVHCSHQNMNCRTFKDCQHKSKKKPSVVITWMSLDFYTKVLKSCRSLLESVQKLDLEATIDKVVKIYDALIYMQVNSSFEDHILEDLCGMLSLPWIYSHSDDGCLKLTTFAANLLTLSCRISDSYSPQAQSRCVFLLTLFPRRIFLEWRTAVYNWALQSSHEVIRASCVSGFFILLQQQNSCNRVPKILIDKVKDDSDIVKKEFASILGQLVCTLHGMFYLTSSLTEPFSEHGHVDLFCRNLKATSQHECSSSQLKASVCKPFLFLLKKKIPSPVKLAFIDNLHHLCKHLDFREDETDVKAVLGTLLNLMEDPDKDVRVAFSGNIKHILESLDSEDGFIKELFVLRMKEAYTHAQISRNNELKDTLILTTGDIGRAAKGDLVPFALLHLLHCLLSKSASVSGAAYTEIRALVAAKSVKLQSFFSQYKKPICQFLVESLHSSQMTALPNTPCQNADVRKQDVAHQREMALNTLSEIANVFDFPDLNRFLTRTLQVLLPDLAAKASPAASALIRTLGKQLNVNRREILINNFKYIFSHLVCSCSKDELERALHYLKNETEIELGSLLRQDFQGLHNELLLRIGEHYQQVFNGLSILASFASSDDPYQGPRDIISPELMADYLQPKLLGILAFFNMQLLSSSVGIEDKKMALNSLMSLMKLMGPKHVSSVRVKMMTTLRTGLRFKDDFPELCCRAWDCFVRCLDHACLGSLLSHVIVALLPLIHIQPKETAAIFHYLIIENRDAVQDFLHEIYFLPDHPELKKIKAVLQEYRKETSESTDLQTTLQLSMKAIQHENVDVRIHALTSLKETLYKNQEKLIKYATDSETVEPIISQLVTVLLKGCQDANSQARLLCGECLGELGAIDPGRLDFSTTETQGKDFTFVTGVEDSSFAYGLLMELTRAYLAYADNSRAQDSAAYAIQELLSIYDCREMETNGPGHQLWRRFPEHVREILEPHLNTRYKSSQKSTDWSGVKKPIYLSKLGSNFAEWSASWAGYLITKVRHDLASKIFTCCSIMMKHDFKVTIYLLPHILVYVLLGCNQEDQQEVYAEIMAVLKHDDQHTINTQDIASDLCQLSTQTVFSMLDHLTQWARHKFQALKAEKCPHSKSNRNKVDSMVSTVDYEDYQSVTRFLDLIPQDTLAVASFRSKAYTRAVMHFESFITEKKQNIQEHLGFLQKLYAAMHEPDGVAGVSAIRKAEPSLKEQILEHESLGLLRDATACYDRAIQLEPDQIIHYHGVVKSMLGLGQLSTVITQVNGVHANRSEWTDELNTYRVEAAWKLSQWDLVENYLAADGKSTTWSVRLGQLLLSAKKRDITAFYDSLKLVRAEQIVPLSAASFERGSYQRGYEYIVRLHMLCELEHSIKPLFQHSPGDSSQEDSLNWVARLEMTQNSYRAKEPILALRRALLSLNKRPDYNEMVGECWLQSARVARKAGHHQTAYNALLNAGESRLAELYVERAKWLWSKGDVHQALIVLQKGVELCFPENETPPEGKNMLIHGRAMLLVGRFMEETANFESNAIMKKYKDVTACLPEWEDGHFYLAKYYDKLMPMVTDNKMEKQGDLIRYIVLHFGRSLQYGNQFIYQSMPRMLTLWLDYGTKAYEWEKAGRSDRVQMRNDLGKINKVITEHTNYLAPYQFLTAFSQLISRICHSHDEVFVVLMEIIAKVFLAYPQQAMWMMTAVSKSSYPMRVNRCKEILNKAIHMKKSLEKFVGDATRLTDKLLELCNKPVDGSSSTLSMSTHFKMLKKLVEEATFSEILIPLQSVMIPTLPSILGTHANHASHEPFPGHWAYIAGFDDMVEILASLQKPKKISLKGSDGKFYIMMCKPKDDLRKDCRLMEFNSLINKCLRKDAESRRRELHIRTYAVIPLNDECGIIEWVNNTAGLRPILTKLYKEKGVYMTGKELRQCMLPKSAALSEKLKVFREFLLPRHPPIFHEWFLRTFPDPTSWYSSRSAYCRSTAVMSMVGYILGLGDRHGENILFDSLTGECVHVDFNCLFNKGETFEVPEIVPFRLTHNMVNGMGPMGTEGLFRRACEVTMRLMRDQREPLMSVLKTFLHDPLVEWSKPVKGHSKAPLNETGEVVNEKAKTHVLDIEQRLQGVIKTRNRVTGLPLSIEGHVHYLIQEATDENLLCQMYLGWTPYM
Chain of ATR kinase (Q8WXE1 whole entry partner): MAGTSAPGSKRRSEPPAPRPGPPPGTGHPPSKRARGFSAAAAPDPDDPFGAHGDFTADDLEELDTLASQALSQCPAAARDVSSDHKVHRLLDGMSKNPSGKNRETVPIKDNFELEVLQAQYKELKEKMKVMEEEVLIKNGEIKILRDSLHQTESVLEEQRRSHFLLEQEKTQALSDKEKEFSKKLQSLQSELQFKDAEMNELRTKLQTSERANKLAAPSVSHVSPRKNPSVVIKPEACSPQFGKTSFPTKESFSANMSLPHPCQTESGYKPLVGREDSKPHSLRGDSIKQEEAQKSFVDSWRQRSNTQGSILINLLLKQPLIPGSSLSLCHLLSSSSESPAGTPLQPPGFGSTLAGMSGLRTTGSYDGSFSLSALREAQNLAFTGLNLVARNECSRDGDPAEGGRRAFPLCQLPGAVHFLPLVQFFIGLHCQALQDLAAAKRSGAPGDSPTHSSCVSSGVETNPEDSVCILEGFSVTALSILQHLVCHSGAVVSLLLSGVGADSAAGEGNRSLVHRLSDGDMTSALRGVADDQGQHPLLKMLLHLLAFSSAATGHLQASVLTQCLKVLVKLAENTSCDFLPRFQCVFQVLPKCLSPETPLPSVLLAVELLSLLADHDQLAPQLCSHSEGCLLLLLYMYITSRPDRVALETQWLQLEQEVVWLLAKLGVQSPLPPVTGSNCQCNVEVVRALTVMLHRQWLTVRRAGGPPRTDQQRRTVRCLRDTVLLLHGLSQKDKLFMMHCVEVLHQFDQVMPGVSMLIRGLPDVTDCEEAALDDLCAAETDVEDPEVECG

N=C(N)NCc1ccc(-c2cc(-c3nc(-c4ccc5c(c4)CCS5(=O)=O)cnc3N)on2)cc1 [Example 27, 1-(4-(5-(3-amino)-6-(1,1-dioxo-2,3-dihydrobenzo[b]thiophen-5-yl)pyrazin-2-yl)isoxazol-3-yl)benzyl)guanidine dihydrochloride]
IC50 (ATR kinase): 0.75 nM

CC(=N)NCc1ccc(-c2cc(-c3nc(-c4ccc(S(=O)(=O)C(C)C)cc4)cnc3N)on2)cc1 [Example 28, N-(4-(5-(3-amino-6-(4-(isopropylsulfonyl)phenyl)pyrazin-2-yl)isoxazol-3-yl)benzyl)acetamidine dihydrochloride]
IC50 (ATR kinase): 1.29 nM

CC(C)S(=O)(=O)c1ccc(-c2cnc(N)c(-c3cc(-c4ccc(CNC(=N)N)cc4C(F)(F)F)no3)n2)cc1 [Example 30, 1-(4-(5-(3-amino-6-(4-(isopropylsulfonyl)phenyl)pyrazin-2-yl)isoxazol-3-yl)-3-(trifluoromethyl)benzyl)guanidine dihydrochloride]
IC50 (ATR kinase): 3.35 nM

CC(C)S(=O)(=O)c1ccc(-c2cnc(N)c(-c3cc(-c4ccc5c(c4)CNC5=O)no3)n2)cc1 [Example 31]
IC50 (ATR kinase): 4 nM

CNCc1ccc(-c2cc(-c3nc(-c4ccc5c(c4)C(F)C(C)(C)S5(=O)=O)cnc3N)on2)cc1 (centres unmarked) [Example 32, 5-(5-amino-6-(3-(4-((methylamino)methyl)phenyl)isoxazol-5-yl)pyrazin-2-yl)-3-fluoro-2,2-dimethyl-2,3-dihydrobenzo[b]thiophene 1,1-dioxide]
IC50 (ATR kinase): 2.09 nM

CNCc1ccc(-c2cc(-c3nc(-c4ccc5c(c4)C(F)C(C)(C)S5(=O)=O)cnc3N)no2)cc1 (centres unmarked) [Example 34, 5-(5-amino-6-(5-(4-((methylamino)methyl)phenyl)isoxazol-3-yl)pyrazin-2-yl)-3-fluoro-2,2-dimethyl-2,3-dihydrobenzo[b]thiophene 1,1-dioxide]
IC50 (ATR kinase): 0.92 nM

CN1CCC(NCc2ccc(-c3nnc(-c4nc(-c5ccc6c(c5)C(F)C(C)(C)S6(=O)=O)cnc4N)o3)cc2)CC1 (centres unmarked) [Example 36]
IC50 (ATR kinase): 0.57 nM

CNCc1ccc(-c2nnc(-c3nc(-c4ccc5c(c4)C(F)C(C)(C)S5(=O)=O)cnc3N)s2)cc1 (centres unmarked) [Example 37, 5-(5-amino-6-(5-(4-((methylamino)methyl)phenyl)-1,3,4-thiadiazol-2-yl)pyrazin-2-yl)-3-fluoro-2,2-dimethyl-2,3-dihydrobenzo[b]thiophene 1,1-dioxide]
IC50 (ATR kinase): 0.77 nM

CNCc1ccc(-c2cc(-c3nc(-c4ccc(S(=O)(=O)C(C)C)cc4)cnc3N)on2)cc1 [VX-970, Berzosertib, reference compound]
TGI (%) [1]: 128%
Tumor change (%) [1]: −12%
Tumor change (%) ([1]; listed as VX970): −13%
body weight of mice after drug administration [1]: decrease in body weight
Tumor volume (mm^3) day 0 [1]: 266 mm^3
Tumor volume (mm^3) day 14 [1]: 231 mm^3

(R)-5-(5-amino-6-(3-(4-((methylamino)methyl)phenyl)isoxazol-5-yl)pyrazin-2-yl)-3-fluoro-2,2-dimethyl-2,3-dihydrobenzo[b]thiophene 1,1-dioxide or (S)-5-(5-amino-6-(3-(4-((methylamino)methyl)phenyl)isoxazol-5-yl)pyrazin-2-yl)-3-fluoro-2,2-dimethyl-2,3-dihydrobenzo[b]thiophene 1,1-dioxide [Example 35-1 or 35-2]
IC50 (ATR kinase): 0.41 nM

(R)-5-(5-amino-6-(3-(4-((methylamino)methyl)phenyl)isoxazol-5-yl-4-deuterium)pyrazin-2-yl)-3-fluoro-2,2-dimethyl-2,3-dihydrobenzo[b]thiophene 1,1-dioxide or (S)-5-(5-amino-6-(3-(4-((methylamino)methyl)phenyl)isoxazol-5-yl-4-deuterium)pyrazin-2-yl)-3-fluoro-2,2-dimethyl-2,3-dihydrobenzo[b]thiophene 1,1-dioxide [Example 38-1 or 38-2]
IC50 (ATR kinase): 0.75 nM
TGI (%) [1]: 159%
Tumor change (%) [1]: −29%
body weight of mice after drug administration [1]: decrease in body weight
decrease in tumor volume compared to the Cisplatin+VX-970 group [1]: more obvious decrease in tumor volume
Tumor volume (mm^3) day 0 [1]: 252 mm^3
Tumor volume (mm^3) day 14 [1]: 180 mm^3

(R)-5-(5-amino-6-(5-(4-((methylamino)methylene)phenyl)-1,3,4-oxadiazol-2-yl)pyrazin-2-yl)-3-fluoro-2,2-dimethyl-2,3-dihydrobenzo[b]thiophene 1,1-dioxide or (S)-5-(5-amino-6-(5-(4-((methylamino)methylene)phenyl)-1,3,4-oxadiazol-2-yl)pyrazin-2-yl)-3-fluoro-2,2-dimethyl-2,3-dihydrobenzo[b]thiophene 1,1-dioxide [Example 33-1 or 33-2]
IC50 (ATR kinase): 0.83 nM
TGI (%) [1]: 245%
Tumor change (%) [1]: −66%
body weight of mice after drug administration [1]: decrease in body weight
decrease in tumor volume compared to the Cisplatin+VX-970 group [1]: more obvious decrease in tumor volume
Tumor volume (mm^3) day 0 [1]: 267 mm^3
Tumor volume (mm^3) day 14 [1]: 92 mm^3
